This is an account of results in ChEMBL document CHEMBL1156825, “Design, synthesis, and docking studies of novel benzimidazoles for the treatment of metabolic syndrome” (J Med Chem, 2010).

Active and inactive are the calls of the source. The calls are words filed in the database; no cut-off is given here.

Assay [1] has as its target T1, Type-1 angiotensin II receptor A (Rattus norvegicus, UniProt P25095).
T1 sequence (P25095 whole entry): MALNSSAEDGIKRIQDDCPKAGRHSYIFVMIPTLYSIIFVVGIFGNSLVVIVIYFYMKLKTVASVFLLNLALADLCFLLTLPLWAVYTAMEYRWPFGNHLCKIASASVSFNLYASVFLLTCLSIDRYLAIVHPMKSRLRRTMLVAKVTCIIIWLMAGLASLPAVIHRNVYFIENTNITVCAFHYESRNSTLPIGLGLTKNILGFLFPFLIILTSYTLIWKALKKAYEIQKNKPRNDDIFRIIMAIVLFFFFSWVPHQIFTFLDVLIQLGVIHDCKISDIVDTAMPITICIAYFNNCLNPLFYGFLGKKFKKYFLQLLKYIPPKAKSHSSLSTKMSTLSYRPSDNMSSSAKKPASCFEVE
The experiment in a line: Displacement of [125I]SI-Ang2 from AT1 receptor in Sprague-Dawley rat liver membrane. The format is cell membranes. A general note: In a radioligand displacement assay an active substance lowers the binding of a labelled ligand.

The target of assay [2] is T2, Peroxisome proliferator-activated receptor gamma (Homo sapiens) (UniProt P37231).
T2 sequence (whole entry): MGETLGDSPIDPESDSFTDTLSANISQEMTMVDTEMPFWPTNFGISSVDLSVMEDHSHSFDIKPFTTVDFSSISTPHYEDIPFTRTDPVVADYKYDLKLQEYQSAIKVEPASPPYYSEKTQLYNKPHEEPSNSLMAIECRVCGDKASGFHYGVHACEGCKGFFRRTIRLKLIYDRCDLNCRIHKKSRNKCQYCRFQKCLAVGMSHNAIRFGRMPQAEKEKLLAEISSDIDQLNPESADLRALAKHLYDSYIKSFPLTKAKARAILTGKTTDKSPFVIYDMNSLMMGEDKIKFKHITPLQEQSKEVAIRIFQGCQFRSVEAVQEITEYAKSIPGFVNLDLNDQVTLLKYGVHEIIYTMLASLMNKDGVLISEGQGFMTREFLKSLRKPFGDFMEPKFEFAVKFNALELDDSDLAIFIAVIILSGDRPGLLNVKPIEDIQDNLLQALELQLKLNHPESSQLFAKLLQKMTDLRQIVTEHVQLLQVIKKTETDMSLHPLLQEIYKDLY
The experiment in a line: Agonist activity at human recombinant PPARgamma expressed in CV1 cells coexpressing GAL4 assessed as receptor transactivation at 10 uM by luciferase reporter gene assay relative to full agonist. Conditions: CV-1. The format is functional, cell-based.

Assay [3] has as its target T3, Peroxisome proliferator-activated receptor alpha (Homo sapiens) (UniProt Q07869).
T3 sequence (whole entry): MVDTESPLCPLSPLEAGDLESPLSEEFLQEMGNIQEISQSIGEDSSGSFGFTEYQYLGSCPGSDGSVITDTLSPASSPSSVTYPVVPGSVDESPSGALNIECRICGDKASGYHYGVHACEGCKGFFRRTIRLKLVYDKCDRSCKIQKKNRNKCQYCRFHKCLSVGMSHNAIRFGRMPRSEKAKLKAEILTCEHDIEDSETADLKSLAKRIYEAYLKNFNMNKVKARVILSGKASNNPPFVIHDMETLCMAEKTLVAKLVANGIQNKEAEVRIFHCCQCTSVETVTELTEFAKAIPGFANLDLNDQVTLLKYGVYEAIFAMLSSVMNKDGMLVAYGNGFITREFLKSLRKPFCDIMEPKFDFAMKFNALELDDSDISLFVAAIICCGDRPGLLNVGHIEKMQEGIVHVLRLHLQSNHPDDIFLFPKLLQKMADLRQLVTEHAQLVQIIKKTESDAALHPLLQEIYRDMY
The experiment in a line: Agonist activity at PPARalpha assessed as receptor transactivation by reporter gene assay relative to control. The format is functional. In general terms: Reporter assays use an easily measured gene product as a stand-in for the process of interest.

In assay [4] the target is T4, Peroxisome proliferator-activated receptor alpha (Homo sapiens, UniProt Q07869).
T4 sequence (Q07869 whole entry): T3 sequence (whole entry)
The experiment in a line: Agonist activity at PPARalpha assessed as receptor transactivation by reporter gene assay. In kind it is functional.

Assay [5] addresses Peroxisome proliferator-activated receptor alpha (Homo sapiens) (UniProt Q07869). The experiment in a line: Agonist activity at human recombinant PPARalpha expressed in CV1 cells coexpressing GAL4 assessed as receptor transactivation at 10 µM by luciferase reporter gene assay relative to full agonist. Conditions: CV-1.

By Ki is commonly meant the dissociation constant of the complex between target and ligand, obtained from inhibition or displacement. The low end stands for higher affinity, the high end for lower affinity. Turning to `CCCc1nc2c(C)cccc2n1Cc1ccc(/C=C/C(=O)OCC)cc1`, the Ki in assay [1] was more than 10000 nM. For the same compound, the Activity in assay [2] stood at 4%.

What is called EC50 is the concentration at which the effect is half-maximal. As for `CCCc1nc2c(C)cccc2n1CCOc1ccc(CC(C)(Oc2ccccc2)C(=O)OCC)cc1` (centres undefined), the Activity in assay [3] came to 93%; in assay [2] it was 69%; in assay [5], 93%. For the same compound, the half-maximal effective concentration (EC50) in assay [4] came to 300 nM. The same compound displayed a Ki in assay [1] of more than 10000 nM.

Compound `CCCc1nc2c(C)cccc2n1CCOc1ccc(CC(C)(C)C(=O)OCC)cc1` displayed a Ki in assay [1] of more than 10000 nM. For the same compound, the Activity in assay [2] worked out at 10%.

The compound `CCCc1nc2c(C)cc(-c3nc4ccccc4n3C)cc2n1Cc1ccc(CCc2nnn[nH]2)cc1` showed an inhibition constant (Ki) in assay [1] of 13.4 nM. The outcome in assay [2] was inactive.

Regarding `CCCc1nc2c(C)cc(-c3nc4ccccc4n3C)cc2n1Cc1ccc(-c2ccccc2C(=O)O)cc1`, the Activity in assay [2] is 21.9%.

On to `CCCc1nc2c(C)cccc2n1Cc1ccc(CCC(=O)OC)cc1`, for which the Ki in assay [1] is more than 10000 nM. For the same compound, in assay [2], the Activity is 2%.

As for `CCCc1nc2c(C)cccc2n1Cc1ccc(OC(C)(C)C(=O)OCC)cc1`, in assay [1], the Ki was more than 10000 nM. In assay [2], the Activity is 21%.

Take `CCCc1nc2c(C)cccc2n1Cc1ccc(CCc2nnn[nH]2)cc1`: the Ki in assay [1] was 2840 nM. For the same compound, the result in assay [2] was inactive.

In the case of `CCCc1nc2c(C)cc(-c3nc4ccccc4n3C)cc2n1CCOc1ccc(CC(C)(Oc2ccccc2)C(=O)O)cc1` (centres undefined), the Ki in assay [1] was 2230 nM. Also, in assay [2], the Activity worked out at 12%.

As for `CCCc1nc2c(C)cc(-c3nc4ccccc4n3C)cc2n1CCOc1ccc(CC(C)(Oc2ccccc2)C(=O)OCC)cc1` (centres undefined), the Activity in assay [3] was determined as 15%; in assay [2], 29%; in assay [5] it was 15%. This compound had an inhibition constant Ki in assay [1] of 2530 nM.

Turning to `CCCc1nc2c(C)cccc2n1Cc1ccc(OCc2nnn[nH]2)cc1`, the inhibition constant (Ki) in assay [1] is 5060 nM. For the same compound, in assay [2], the result was inactive.

Turning to `CCCc1nc2c(C)cc(-c3nc4ccccc4n3C)cc2n1CCOc1ccc(CCc2nnn[nH]2)cc1`, affinity in assay [1] was put at a Ki of 1620 nM. Besides, the result in assay [2] was inactive.

`CCCc1nc2c(C)cccc2n1Cc1ccc(OCC(=O)OCC)cc1` yielded a Ki in assay [1] of more than 10000 nM.
